Consider six molecules from US20110313041A1 (priority 2008, published 2011).

Data set [1] concerns smooth muscles of lachrymal gland, bladder, stomach, intestine. The experiment in a line: response experiment to sublingual/buccal Panthenol under Acetylcholinersterase-inhibition. In kind it is in vivo, human. The following applies: 2 g Panthenol Tbl. sublingual/buccal. How it is done: Immediately afterwards, response experiment to sublingual/buccal applied 2 g-Panthenol Tbl. was executed. […] After its decay and continuation of the breakfast with bread the same reactions in bladder, womb and bowel 10 minutes later repeated with time shortened duration.
Acetylcholine, the natural excitation transmitter from the nerve to the muscle effects striped muscles in concentrations of 10^−6 g/l, smooth muscles already in concentrations of 10^−16 g/l. (4) These “adverse” reactions are contractions of smooth muscles of lachrymal gland, bladder, stomach, intestine, caused by there suddenly synthesized acetylcholine, which exceeds the Response threshold that is 10^−16 grams per liter of acetylcholine in smooth muscles: • a) within 10 minutes of ingestion into the stomach and after the end of reaction; • b) within 10 minutes of sublingual/buccal absorption of 2000 mg Tbl Panthenol, while Acetylcholinersterase-inhibition amongst 140 mg Neostgminbromid is existing. […] (13)

For the next data set, the target named is T1, ACH Esterase (Homo sapiens, UniProt P22303).
T1 construct: endogenous in cells
The following applies: 30 mg PB, soldiers, cited from earlier work.

A short description of data set [2]: treatment of weakness in metabolic activity with pantothenic acid-CoA. It counts as in vivo, human. The following applies: intake in a large amount. The source says: The invention is based of the surprising finding of Mr.
Muscle weakness and pain, weakness, respiratory weakness, mental exhaustion, and gastric problems have mainly been treated with pantothenic acid-CoA,-buk, vitamins and amino acids.
After improvement and discontinuation of the treatment the symptoms returned after a short interval. Ultimately, the problems could be reduced and neutralised through re-treatment. Only with the normalization of the function of the digestive tract, the absorption of pantothenic acid-CoA from food in the stomach could be reproduced, and the treatment was dispensable.
Disturbed gastric functions and/or depletion of mitochondrial reserves in Myasthenia, autism, chronic fatigue syndrome appears in the fading of the yellowing of the urine. […] The current optimum, the proof of the success of the pantothenic acid-CoA treatment is reached when harmless acetylcholine surplus reactions responses in the bladder, stomach or intestines occur.

The conditions of data set [3]: cited from earlier work; for side effects: Alzheimer's disease patients; for condition of Alzheimer's disease patients: after administration.

Read-outs that look alike come from different tables or passages of the source.

T1 sequence (P22303 32-614): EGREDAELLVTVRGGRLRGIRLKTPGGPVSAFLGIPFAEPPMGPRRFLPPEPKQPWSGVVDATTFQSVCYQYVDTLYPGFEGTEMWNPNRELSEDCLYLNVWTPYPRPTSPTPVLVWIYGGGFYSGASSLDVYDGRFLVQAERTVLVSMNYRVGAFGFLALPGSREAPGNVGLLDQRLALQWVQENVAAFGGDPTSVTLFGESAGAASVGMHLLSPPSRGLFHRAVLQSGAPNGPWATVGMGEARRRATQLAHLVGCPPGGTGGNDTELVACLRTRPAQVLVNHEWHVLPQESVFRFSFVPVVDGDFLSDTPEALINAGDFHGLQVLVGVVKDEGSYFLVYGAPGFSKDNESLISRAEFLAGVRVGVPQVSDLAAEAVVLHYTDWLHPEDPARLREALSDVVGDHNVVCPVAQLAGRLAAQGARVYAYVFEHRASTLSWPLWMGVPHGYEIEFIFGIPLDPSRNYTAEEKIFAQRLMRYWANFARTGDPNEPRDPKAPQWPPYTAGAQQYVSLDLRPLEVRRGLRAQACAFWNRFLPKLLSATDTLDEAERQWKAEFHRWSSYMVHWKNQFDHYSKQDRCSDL

On to `CC(C)(CO)[C@@H](O)C(=O)NCCCO` [Panthenol], for which the “reaction to first application of Panthenol” value in data set [1] (first application, under 140 mg Neostigminbromid) is “the same adverse reaction started with a similar duration”. The “reaction to anew application of Panthenol” value in data set [1] (second application after continued breakfast) is “the same adverse reaction started, but delayed and lasted for less”. In the case of `CN(C)C(=O)Oc1ccc[n+](C)c1` [Pyridostigminbromid], the adverse cholinergic reactions result on ACH Esterase is “nausea, vomiting, stomach cramps, diarrhea, urination, increased salivation, sweating and muscle spasm”; on ACH Esterase (listed as pyridostigmine bromide), “nausea, vomiting, abdominal Cramps, diarrhea, increased salivation, sweating, muscle Cramps”. pantothenic acid-CoA: the “effect on symptoms caused by weakness in metabolic activity” value in data set [2] is given as “beneficial effect”. Same read-out and setting: for `CC(C)(CO)[C@@H](O)C(=O)NCCC(=O)O` [pantothenic acid, Pantothenic acid] the value was “beneficial effect”. On to `Nc1c2c(nc3ccccc13)CCCC2` [Tacrine], for which, in data set [3], the side effects entry was “nausea, vomiting, diarrhea and cramps”; the “condition of Alzheimer's disease patients” value was “improvement of their condition”. Turning to `CCN(C)C(=O)Oc1cccc([C@H](C)N(C)C)c1` [Rivastigmin], in data set [3], the side effects entry is “nausea, vomiting, diarrhea and cramps”; the “condition of Alzheimer's disease patients” value is given as “improvement of their condition”.
